Laboratory results published in patent publication US20240218022A1, “ANTI-VISTA MACROCYCLIC PEPTIDES AND COMPOSITIONS” (BRISTOL-MYERS SQUIBB COMPANY, priority 2022, published 2024).
Starred links: 1 amine or outer side, 2 acyl side, 3 side chain; linkers in the order of their positions; H or OH if unused. Positions of bridges follow the written chain, without caps; N, C: chain ends. Non-standard residues stand in square brackets, D forms with d. Residues, ends and D or L forms follow the SMILES beside them. Tyr(3-Cl) = N[C@@H](Cc1ccc(O)c(Cl)c1)C(=O)O; Phe(3-Me) = Cc1cccc(C[C@H](N)C(=O)O)c1; γGlu = O=C(O)[C@H](CCC(=O)[*:2])N[*:1]; 2Nal = N[C@@H](Cc1ccc2ccccc2c1)C(=O)O; βAsp = O=C(O)[C@H](CC(=O)[*:2])N[*:1]; Ahp(2) = CCCCC[C@H](N)C(=O)O; NMeNle = CCCC[C@H](NC)C(=O)O; Tle = CC(C)(C)[C@H](N)C(=O)O; NHexGly = CCCCCCNCC(=O)O; Nle = CCCC[C@H](N)C(=O)O; Orn = NCCC[C@H](N)C(=O)O; Aun = NCCCCCCCCCCC(=O)O; Dab = NCC[C@H](N)C(=O)O; AEEA = NCCOCCOCC(=O)O

Biological target: T1, mouse VISTA (mVISTA) (Mus musculus, UniProt Q9D659)
T1 construct: expressed in transfected cells; host or cells: Human embryonic kidney 293T cells
T1 sequence (Q9D659 33-308): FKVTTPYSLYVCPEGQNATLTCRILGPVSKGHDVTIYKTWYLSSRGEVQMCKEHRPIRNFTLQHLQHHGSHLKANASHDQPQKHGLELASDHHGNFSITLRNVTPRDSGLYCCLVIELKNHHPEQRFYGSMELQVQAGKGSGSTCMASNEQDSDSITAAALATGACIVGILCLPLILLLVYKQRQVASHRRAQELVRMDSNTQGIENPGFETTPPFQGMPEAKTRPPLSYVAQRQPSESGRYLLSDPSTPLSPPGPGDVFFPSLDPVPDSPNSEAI
Experiment: Cell-Based Binding High-Content Assay For mVISTA (HC CBA mVISTA)
Conditions: cell-based binding high-content assay; read-out: HC CBA mVISTA IC50
Summary of the method: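 This high-content binding assay uses HEK293T cells expressing murine VISTA, measuring displacement of 2 nM biotinylated peptide by fluorescent streptavidin imaging. IC50 values come from four-parameter logistic fitting.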

Row | IC50 [nM] | Structure (SMILES)
1 | 22.4 | CCCCCCN1CC(=O)N[C@@H](Cc2ccc(O)cc2)C(=O)N[C@@H](CC(C)C)C(=O)N[C@@H](CC(N)=O)C(=O)N[C@@H](CCCNC(=N)N)C(=O)N(C)[C@@H](CCCC)C(=O)N[C@@H](CCCCC)C(=O)N2CCC[C@H]2C(=O)N[C@@H](C(C)(C)C)C(=O)N[C@@H](CC(=O)O)C(=O)N[C@H](C(=O)N[C@@H](CC(=O)NCCOCCOCC(=O)N[C@@H](CCN)C(=O)NCCOCCOCC(=O)NCCCCCCCCCCC(=O)O)C(=O)O)CSCC(=O)N[C@@H](Cc2ccccc2)C(=O)N[C@@H](Cc2ccc(O)cc2)C(=O)N[C@@H](CC(=O)O)C1=O [compound 2329] ({CH2CO}-FYD[NHexGly]YLNR[NMeNle][Ahp(2)]P[Tle]DC[βAsp][AEEA][Dab][AEEA][Aun]-OH; thioether N-14)
2 | 18 | CCCCCCN1CC(=O)N[C@@H](Cc2ccc(O)cc2)C(=O)N[C@@H](CCCC)C(=O)N[C@@H](CC(N)=O)C(=O)N[C@@H](CCCNC(=N)N)C(=O)N(C)[C@@H](CCCC)C(=O)N[C@@H](CCCCC)C(=O)N2CCC[C@H]2C(=O)N[C@@H](C(C)(C)C)C(=O)N[C@@H](CO)C(=O)N[C@H](C(=O)NCC(=O)NCCOCCOCC(=O)N[C@@H](CCC(=O)NCCOCCOCC(=O)NCCCCCCCCCCC(=O)O)C(=O)O)CSCC(=O)N[C@@H](Cc2ccccc2)C(=O)N[C@@H](Cc2cccc(C)c2)C(=O)N[C@@H](CC(=O)O)C1=O [compound 2330] ({CH2CO}-F[Phe(3-Me)]D[NHexGly]Y[Nle]NR[NMeNle][Ahp(2)]P[Tle]SCG[AEEA][γGlu][AEEA][Aun]-OH; thioether N-14)
3 | 46.8 | CCCCCCN1CC(=O)N[C@@H](Cc2ccc(O)cc2)C(=O)N[C@@H](CCCC)C(=O)N[C@@H](CC(N)=O)C(=O)N[C@@H](CCCNC(=N)N)C(=O)N(C)[C@@H](CCCC)C(=O)N[C@@H](CCCCC)C(=O)N2CCC[C@H]2C(=O)N[C@@H](C(C)(C)C)C(=O)N[C@@H](CO)C(=O)N[C@H](C(=O)NCC(=O)NCCOCCOCC(=O)N[C@@H](CCC(=O)NCCOCCOCC(=O)NCCCCCCCCCCC(=O)O)C(=O)O)CSCC(=O)N[C@@H](Cc2ccc3ccccc3c2)C(=O)N[C@@H](Cc2ccc(O)cc2)C(=O)N[C@@H](CC(=O)O)C1=O [compound 2333] ({CH2CO}-[2Nal]YD[NHexGly]Y[Nle]NR[NMeNle][Ahp(2)]P[Tle]SCG[AEEA][γGlu][AEEA][Aun]-OH; thioether N-14)
4 | 24 | CCCCCCN1CC(=O)N[C@@H](Cc2ccc(O)c(Cl)c2)C(=O)N[C@@H](CC(C)C)C(=O)N[C@@H](CC(N)=O)C(=O)N[C@@H](CCCN)C(=O)N(C)[C@@H](CCCC)C(=O)N[C@@H](CCCCC)C(=O)N2CCC[C@H]2C(=O)N[C@@H](C(C)(C)C)C(=O)N[C@@H](CO)C(=O)N[C@H](C(=O)N[C@@H](CC(=O)NCCOCCOCC(=O)N[C@@H](CC(=O)O)C(=O)NCCOCCOCC(=O)NCCCCCCCCCCC(=O)O)C(=O)O)CSCC(=O)N[C@@H](Cc2ccccc2)C(=O)N[C@@H](Cc2ccc(O)cc2)C(=O)N[C@@H](CC(=O)O)C1=O [compound 2336] ({CH2CO}-FYD[NHexGly][Tyr(3-Cl)]LN[Orn][NMeNle][Ahp(2)]P[Tle]SC[βAsp][AEEA]D[AEEA][Aun]-OH; thioether N-14)
